Consider six compounds from paper PMC10393279, “Can BioSAXS detect ultrastructural changes of antifungal compounds in Candida albicans?–an exploratory study” (Frontiers in Pharmacology, 2023).

Read-outs that look alike come from different tables or passages of the source. No end group written: not given here.

The test system of series [1] is C. albicans. The series can be described thus: microbe, parasite or virus in culture. The format is cell-based, Candida albicans. To be noted: broth microdilution, 30°C. The protocol:
In this project, we used a clinical isolate of C. albicans obtained from Tim Planche (St. George’s, University of London).
Mueller-Hinton broth (MHb) (Merck, Life Science UK Limited, Dorset, UK) was prepared to concur with the manufacturer’s directions and supplemented with 2% glucose to grow C. albicans. Liquid cultures were incubated at 30°C for 18–20 h on a shaker, and culture on solid media was incubated for 18–24 h at 30°C.
When it comes to determining the antimicrobial activity of antimicrobial peptides (AMPs) there are unfortunately many different approaches reported. Many AMPs are negatively affected by positively charged ions and other components of growth media, therefore Mueller-Hinton broth (MHb) is frequently used since it supports the growth of many organisms and seems to interfere little with the activity of most AMPs. The […] of Flucytosine and antifungal peptides were determined using a protocol (option E) of the highly cited publication by [Wiegand et al. (2008)] optimized for the work with antimicrobial peptides. This protocol uses MHb (0.2% beef extract, 1.75% casein hydrolysate). To adopt that media for the growth of yeast 2% glucose was added. For comparison, YPD complex medium (1% yeast extract, 2% peptone, 2% dextrose) is often used for the growth of yeast. Where this media provides the best activity for antimicrobial peptides the results should be carefully used when comparing MIC values to other antifungals measured in different growth media. A broth microdilution assay was applied using 6 × 10^5 CFU/mL at 30°C. MICs were determined by the unaided eye, as the concentration in which no growth was observed.
On the technique in general: Dilution methods test growth across graded concentrations, often in twofold steps.

In series [2] the test system is C. albicans. The series can be described thus: BioSAXS ultrastructural changes, principal component analysis of scattering curves. Format: cell-based, Candida albicans. Conditions: 2xMIC, 40 min. As to the method: A detailed description of the sample preparation for BioSAXS, the BioSAXS measurement and consequently the data evaluation methods can be found in the open-source publication by [Von Gundlach et al. (2019)]. Briefly, an aliquot of an overnight culture of a clinical isolate of C. albicans was diluted in Mueller-Hinton broth (MHb) and incubated for 2.5 h at 30°C on a shaker (225 rpm) to achieve log phase growth. The C. albicans culture was adjusted to have 1.2 × 10^6 CFU/mL and aliquoted. The aliquots were then mixed with either sterile water or antifungal solution (2xMIC) to provide 6 × 10^5 CFU/mL aliquots. Those were further incubated for 40 min at 30°C at 225 rpm. All aliquots were then centrifuged at 10,000 rpm and washed 3 times in ml 0.1 M PIPES [piperazine-N,N′-bis(2-ethanesulfonic acid)] buffer, pH 7.0. After washing, the pellet was resuspended in 1 mL of 2.5% glutaraldehyde v/v in PIPES buffer and fixated for 1 h at room temperature at 225 rpm. Consequently, the samples were washed 3 times with PBS buffer and resuspended in 100 µL of PBS and stored at 5°C.
The SAXS measurements were performed on the P12 BioSAXS beamline, EMBL (DESY, Hamburg), using a double crystal Si (111) monochromator. An energy of 10 keV with a 10^13 s^−1 photon flux was used. 30 μL of each sample was injected into the measuring chamber by an automatic sample robot (Arinax, BioSAXS), the focus of the X-ray beam was 0.2 × 0.12 mm. The scattering signal was recorded with a Pilatus 2 M detector (Dectris, Switzerland). For each sample, 20 measurements were made with 0.05 s exposure. Before and after each measurement the background was measured and automatically subtracted from the SAXS curves. Data analysis and evaluation were done using the open-source software SciXMiner (“Peptide Extension”) ([Mikut, 2010]; [Mikut et al., 2017]). To determine differences in the scattering curves between treated and untreated samples as well as between the different treatments a principal component analysis (PCA) was applied to the scattering curves. The data are measurements of about 100,000 cells that were measured 20 times to obtain the scattering curves. SAXS curves were averaged and the standard deviation was used as an error bar. The PCA analysis was carried out in the frequency range between 0.05–0.4 nm^−1, and errors were propagated from the single SAXS curves (see Supplementary Figure S1).

For series [3], the system named is erythrocytes. Also on record: method as in 3 sources, one per row (each row's own in cited_ref): ref Cerovsky et al., 2009 ||| ref Cao et al., 2012; Almaaytah and Albalas, 2014 ||| ref Hirai et al., 1981. Conditions: cited from earlier work.
In series [4] the test system is human erythrocytes. To be noted: no method in this paper, ref Grimsey et al., 2020; cited from earlier work.
Series [5] deals with sheep erythrocytes. To be noted: ref Andreu et al., 1992, Edlund et al., 1998; cited from earlier work.
[6] abbreviates: 6 × 10^5 CFU/mL, PCA range 0.05–0.4 nm^−1.
[7] abbreviates: Mueller-Hinton broth + 2% glucose, 6 × 10^5 CFU/ml C. albicans clinical isolate, read by unaided eye, n = 3, modal values.

Regarding `Nc1[nH]c(=O)ncc1F` [Flucytosine], the MIC in series [1] (Candida albicans, MHb + 2% glucose, 6 × 10^5 CFU/mL C. albicans clinical isolate, read-out: MIC) is 8 µg/mL. Also, in series [2], the “PC1 value, rank in the set of six antifungal compounds” value is listed as “second-lowest”; the “PC2 value compared to the untreated cells (direction)” value is on record as “increased”; the “PC2 value, rank in the set of six antifungal compounds” value was “highest”; the “ΔPC1 (treated versus untreated), sign” value is “positive”. Also, in series [2] (setting [6]), the “increase of PC2 versus untreated sample” value is listed as “about 1 unit” and the “reduction of PC1 versus untreated sample” value is “about 6 units”.
Consider FIGAIARLLSKIFGKR-NH2 [Bmkn2], for which, in series [1] (setting [7]), the “MIC” value worked out at 18 µM. Also, the “HC50 (hemolysis)” value in series [3] (ref Cao et al., 2012, Almaaytah and Albalas, 2014) is 17.13 µg/mL.
INLKAIAALAKKLL-NH2 [Mastoparan M]: the “MIC” value in series [1] (setting [7]) is reported as 22 µM. In addition, the “hemolytic activity” value in series [3] (ref Hirai et al., 1981) was “very little”.
In the case of KRRVRWIIW-NH2 [OptP7], the “MIC” value in series [1] (setting [7]) turned out to be 24 µM. Also, the “HC50 (hemolysis)” value in series [4] was greater than 250 µg/mL.
For the compound KWKLFKKIGAVLKVL-NH2, the “MIC” value in series [1] (setting [7]) is 18 µM. For the same compound, the hemolytic activity in series [5] is greater than 500 µg/mL.
For the compound “VNWKKILGKIIKVVK-NH2 [Lasioglossin LL-III]”, in series [1] (setting [7]), the “MIC” value is recorded as 36 µM. Also, the “hemolytic and cytotoxic activity” value in series [3] (ref Cerovsky et al., 2009) was “low”.
